Assay results: PMC6588697, “Lugdunin amplifies innate immune responses in the skin in synergy with host- and microbiota-derived factors” (Nature Communications, 2019)
Several values for one entry are separate records, joined by “and”; a condition that tells them apart may be missing. Equal values may be shown once. No end group written: not given here.

System: PHKs
Assay: CXCL8 expression in PHKs (qRT-PCR, normalized to actin)
Assay type: cell-based, human
Conditions: for CXCL8 expression normalized to actin / CXCL8 induction by S. epidermidis CM with added peptide: PHKs; for CXCL8 expression normalized to actin / CXCL8 induction by S. epidermidis CM with added peptide / induction of CXCL8 expression in PHKs: 5 h; for induction of CXCL8 expression in PHKs: single treatment, 2 µM human AMPs or lugdunin, 0.8 µM (pro)-gallidermin or nisin
Protocol: Fig. 1 Lugdunin sensitizes epithelial cells for innate immune defense. a Primary human keratinocytes (PHKs) were pretreated with S. epidermidis conditioned medium (CM), indicated lugdunin concentrations, or the combination of both for 20 h. Subsequently, cells were infected with S. aureus for 1.5 h followed by cell lysis and determination of colony-forming units (CFUs). Shown is one representative experiment of three independent experiments with six technical replicates ± s.e.m. n.s., not significant. b Dorsal skin of mice was pretreated with S. epidermidis CM, 1.5 µg lugdunin alone or in combination with S. epidermidis CM for 24 h. Subsequently, S. aureus CFUs were determined. Horizontal lines represent the mean of each group ± s.e.m. c PHKs were treated with 2 μM lugdunin or with S. epidermidis CM alone or in combination for 20 h and subsequently expression of indicated antimicrobial peptides (AMPs) (respective protein names in brackets) was analyzed and normalized to actin. Shown is one representative experiment of three independent experiments with two technical replicates ± s.e.m. d PHKs were treated with 2 µM lugdunin or 100 ng/mL Pam2Cys for 5 h and subsequently the concentration of indicated cytokines in the supernatant was analyzed by LEGENDplex^TM (BioLegend). Shown is one representative experiment of three independent experiments with two technical replicates ± s.e.m. e PHKs were treated with increasing concentrations of lugdunin or 100 ng/mL Pam2Cys or Pam3Cys for 5 h and subsequently expression of chemokine (C-X-C motif) ligand 8 (CXCL8) was analyzed and normalized to actin. Shown is one representative experiment of three independent experiments, each with two technical replicates ± s.e.m. f, g Indicated cells were treated with 2 µM lugdunin or 100 ng/mL Pam2Cys as a positive control for 5 h and subsequently the concentration of CXCL8 (f) and interleukin-1α (IL-1α) (g) in the supernatant was analyzed by LEGENDplex^TM (BioLegend) and enzyme-linked immunosorbent assay (ELISA) (R&D Systems). Shown is one representative experiment of three independent experiments with two technical replicates ± s.e.m. Significant differences to control treatments were analyzed by ordinary one-way analysis of variance (ANOVA) followed by Dunnett’s multiple comparisons test (*P < 0.05; **P < 0.01; ***P < 0.001; ****P < 0.0001). n.d. = not detected. Source data are provided as a Source Data file
Fig. 4 Lugdunin amplifies the commensal-induced chemokine (C-X-C motif) ligand (CXCL8) induction. a Primary human keratinocytes (PHKs) were either treated with 2 μM of human antimicrobial peptides (AMPs) (black bars) or lugdunin (blue bars), or 0.8 μM (pro)-gallidermin or nisin (black bars), or in combination with S. epidermidis conditioned medium (CM) (gray and red striped bars) for 5 h, and subsequently expression of CXCL8 was analyzed and normalized to actin. Shown is one representative experiment of three independent experiments with two technical replicates ± s.e.m. b PHKs were treated with 2 μM human AMPs, 2 μM lugdunin, 0.8 μM of the other bacteriocins (gray bars) or the correspondent peptide combinations (white bars), or 50 ng/mL Pam2Cys, 10 ng/mL IL-1α, or S. epidermidis CM as controls (black bars), for 5 h and subsequently expression of CXCL8 was analyzed and normalized to actin. Shown is one representative experiment of three independent experiments with two technical replicates ± s.e.m. Significant differences to control treatments were analyzed by ordinary one-way analysis of variance (ANOVA) followed by Dunnett’s multiple comparisons test (***P < 0.001; ****P < 0.0001). Source data are provided as a Source Data file
After 5 h or 20 h of peptide treatment, PHKs were washed once with PBS, followed by the addition of RNA lysis buffer directly into the well. Total RNA was extracted using the Nucleospin RNA Kit (Macherey-Nagel) according to the manufacturer’s protocol. […]

[1] = 2 µM human AMPs, 2 µM lugdunin, 0.8 µM other bacteriocins or their combinations, 50 ng/mL Pam2Cys, 10 ng/mL IL-1α, S. epidermidis CM, two technical replicates, Fig 4b
[2] = peptide (2 µM human AMPs or lugdunin, 0.8 µM gallidermin or nisin) in combination with S. epidermidis CM, two technical replicates, Fig 4a
[3] = single treatment: 2 µM human AMPs or lugdunin, 0.8 µM (pro)-gallidermin or nisin, or S. epidermidis CM, M = 1, two technical replicates (rows), Fig 4a

Substance	CXCL8 expression normalized to actin [1]	CXCL8 expression normalized to actin [2]	CXCL8 induction by S. epidermidis CM with added peptide (Fig 4a)	induction of CXCL8 expression in PHKs (S. epidermidis CM, Fig 4a)	CXCL8 expression normalized to actin (lugdunin 0.5 µM, medium = 1, technical replicates, Fig 1e)	CXCL8 expression normalized to actin (lugdunin 1 µM, technical replicates, Fig 1e)	CXCL8 expression normalized to actin (lugdunin 2 µM, technical replicates, Fig 1e)	CXCL8 expression normalized to actin (lugdunin 3 µM, technical replicates, Fig 1e)	CXCL8 expression normalized to actin (lugdunin 5 µM, technical replicates, Fig 1e)	CXCL8 expression normalized to actin (lugdunin 10 µM, technical replicates, Fig 1e)	CXCL8 expression normalized to actin [3]	lugdunin concentrations that induced expression and release of CXCL8 in PHKs (higher concentrations did not induce CXCL8 production, text to Fig 1d, e)
IASKFLCTPGCAKTGSFNSYCC (also: bicyclic or more (positions not given here)) [Gallidermin, bacteriocin isolated from Staphylococcus gallinarum]	3.22 and 3.395	2.713 and 2.789	completely blocked	not able to induce CXCL8 expression	–	–	–	–	–	–	–	–
ITSISLCTPGCKTGALMGCNMKTATCHCSIHVSK (not fully specified (bridges); also: lanthionine rings, places not given here) [Nisin, bacteriocin of Lactococcus lactis, purchased from Sigma]	3.325 and 3.22	88.3403 and 93.3773	non-significant increase	not able to induce CXCL8 expression	–	–	–	–	–	–	–	–
LLGDFFRKSKEKIGKEFKRIVQRIKDFLRNLVPRTES [LL-37, human cathelicidin AMP]	1.54 and 1.645	38.5859 and 33.1285	–	not able to induce CXCL8 expression	–	–	–	–	–	–	–	–
Lugdunin	43.47 and 44.695	1093.7 and 1265.07	over 1000 fold	over 40 fold	1.93 and 1.44 and 0.406 and 0.518	10.23 and 9.29 and 0.973 and 1.087	43.4456 and 47.5424 and 22.549 and 29.548	64.669 and 66.487	11.7628 and 11.128	2.0508 and 6.298	44.695 and 43.47	up to 3 µM
MEAVKEKNELFDLDVKVNAKESNDSGAEPRIASKFLCTPGCAKTGSFNSYCC [Pro-Gallidermin, non-bactericidal pro-form of gallidermin]	3.465 and 3.43	–	–	–	–	–	–	–	–	–	–	–
SSLLEKGLDGAKKAVGGLGKLGKDAVEDLESVGKGAVHDVKDVLDSV [DCD-1, dermcidin-derived human AMP of eccrine sweat glands]	13.37 and 13.02	61.3666 and 64.6468	–	10 fold	–	–	–	–	–	–	13.02 and 13.37	–
SSLLEKGLDGAKKAVGGLGKLGKDAVEDLESVGKGAVHDVKDVLDSVL [DCD-1L, dermcidin-derived human AMP of eccrine sweat glands]	2.31 and 2.52	45.0983 and 49.3507	–	–	–	–	–	–	–	–	2.52 and 2.31	–
